Test results published in patent US20070015741A1, “Novel prodrugs of estradiol” (priority 2005, published 2007).

Test: Stability at 40° C./75% RH, prodrug assayed by HPLC for degradation to parent compound estradiol
Assay type: physicochemical
Conditions: HPLC assay of prodrug
Protocol: The following is an example of stability for the preferred compound described previously. Stability was conducted at 40° C./75% RH, with the prodrug being assayed at specific time-points for degradation to the parent compound, estradiol. The time-points for stability were T=0 months, T=2 weeks, T=1 month, and T=3 months. The following outlines the conditions utilized for analysis of the prodrug. Analysis was conducted using High-Performance Liquid Chromatography (HPLC). The retention time for estradiol lactate acetate was approximately 9.0 minutes using these conditions. Conditions for HPLC analysis: [table]

- Assay (%) T = 0 (T=0 months): 94.45%
- Assay (%) T = 1 (T=1 month): 92.77%
- Assay (%) T = 2 W (T=2 weeks): 93.47%
- Assay (%) T = 3 (T=3 months): 94.3%
Substance: estradiol lactate-acetate
